Experiments:
[1] = target: T1, human sphingosine-1-phosphate receptor 1 (S1P1) (Homo sapiens (Human), UniProt P21453); assay: Inhibition of cAMP production (HTRF cAMP HiRange), S1P1 CHO-K1 cells; format: cell-based; settings: for Emax: CHO-K1, efficacy (SPAN) normalized to fingolimod, read-out: hS1P1 cAMP SPAN; for hS1P1 cAMP pEC50: inhibition of cAMP production, S1P1 CHO-K1 cells
In short: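 CHO-K1 cells stably co-expressing human S1P1 (C-terminal Prolink tag) and EA-β-arrestin2 were grown in AssayComplete Media 6 at 37° C. and 5% CO2, plated, and incubated overnight. Agonist-driven inhibition of intracellular cAMP was read by TR-FRET with the HTRF cAMP HiRange kit on a PheraStar reader. Potency is pEC50, and efficacy (SPAN) is normalized to fingolimod.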
Target sequence in this assay (P21453 whole entry, looked up): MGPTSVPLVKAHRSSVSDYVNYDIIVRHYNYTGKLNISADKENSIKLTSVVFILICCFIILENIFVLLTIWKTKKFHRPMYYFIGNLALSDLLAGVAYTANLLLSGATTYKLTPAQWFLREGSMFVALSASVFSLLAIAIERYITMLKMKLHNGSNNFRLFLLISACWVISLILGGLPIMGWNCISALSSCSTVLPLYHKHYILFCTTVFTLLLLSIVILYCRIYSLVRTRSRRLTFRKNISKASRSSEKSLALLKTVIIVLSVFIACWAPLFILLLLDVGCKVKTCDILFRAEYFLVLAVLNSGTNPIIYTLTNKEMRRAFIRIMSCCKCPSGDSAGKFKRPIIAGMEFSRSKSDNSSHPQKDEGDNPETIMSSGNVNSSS

[2] = target: T1, human sphingosine-1-phosphate receptor 1 (S1P1); assay: β-Arrestin2 recruitment assay (PathHunter), S1P1 CHO-K1 cells; format: cell-based; settings: for Emax: CHO-K1, efficacy (SPAN) normalized to fingolimod, read-out: hS1P1 B-arrestin2 SPAN; for hS1P1 B-arrestin2 pEC50: β-arrestin2 recruitment, S1P1 CHO-K1 cells
In short: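 Enzyme-fragment complementation read-out: agonist-driven β-arrestin2 binding to ProLink-tagged human S1P1 in stable CHO-K1 cells restores β-galactosidase, measured 1 h at room temperature after a 60 min 37° C. compound incubation. Potency as pEC50, efficacy relative to fingolimod (SPAN).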
Target sequence in this assay (P21453 whole entry, looked up): as above
Target sequence in this assay (P32121 whole entry partner, looked up): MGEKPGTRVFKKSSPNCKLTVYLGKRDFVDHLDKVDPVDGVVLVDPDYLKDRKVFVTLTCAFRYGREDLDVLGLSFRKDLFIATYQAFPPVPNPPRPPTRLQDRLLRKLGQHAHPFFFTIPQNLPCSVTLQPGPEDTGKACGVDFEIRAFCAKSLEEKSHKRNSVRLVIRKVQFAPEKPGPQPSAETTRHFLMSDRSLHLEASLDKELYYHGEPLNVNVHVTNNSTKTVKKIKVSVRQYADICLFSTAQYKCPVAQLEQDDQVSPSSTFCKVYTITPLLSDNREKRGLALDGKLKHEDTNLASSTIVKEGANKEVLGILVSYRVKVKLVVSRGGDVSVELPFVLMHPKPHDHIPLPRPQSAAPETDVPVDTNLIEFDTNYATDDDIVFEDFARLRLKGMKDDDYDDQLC

| Emax [1] | hS1P1 cAMP pEC50 [1] | Emax [2] | hS1P1 B-arrestin2 pEC50 [2] | SMILES |
| --- | --- | --- | --- | --- |
| < 75% | <6.5 | < 75% | <5 | COc1ccc(-c2noc(-c3ccc4c(c3)nnn4C3CCCC3)n2)cc1C(F)(F)F [Compound 197, 1-cyclopentyl-5-{3-[4-methoxy-3-(trifluoromethyl)phenyl]-1,2,4-oxadiazol-5-yl}-1H-1,2,3-benzotriazole] |
| > 75% | >6.5 | < 75% | >5 | Clc1ncccc1-c1noc(-c2ccc3c(c2)nnn3C2CCCC2)n1 [Compound 198, 5-[3-(2-chloropyridin-3-yl)-1,2,4-oxadiazol-5-yl]-1-cyclopentyl-1H-1,2,3-benzotriazole] |
| < 75% | <6.5 | < 75% | <5 | Clc1ncccc1-c1noc(-c2ccc3c(c2)nnn3CC2CC2)n1 [Compound 199, 5-[3-(2-chloropyridin-3-yl)-1,2,4-oxadiazol-5-yl]-1-(cyclopropylmethyl)-1H-1,2,3-benzotriazole] |
| – | <6.5 | – | <5 | CC(C)n1nnc2cc(-c3noc(C45CC6CC(CC(C6)C4)C5)n3)ccc21 [Compound 200, 5-[5-(adamantan-1-yl)-1,2,4-oxadiazol-3-yl]-1-(propan-2-yl)-1H-1,2,3-benzotriazole] |
| – | <6.5 | – | <5 | Cc1cc(-c2nc(-c3ccc4c(c3)nnn4C(C)C)no2)cnc1C [Compound 201, 5-(5,6-dimethylpyridin-3-yl)-3-(1-isopropyl-1H-benzo[d][1,2,3]triazol-5-yl)-1,2,4-oxadiazole] |
| < 75% | <6.5 | < 75% | <5 | Cc1ccccc1Cc1noc(-c2ccc3c(c2)nnn3C(C)C)n1 [Compound 202, 5-{3-[(2-methylphenyl)methyl]-1,2,4-oxadiazol-5-yl}-1-(propan-2-yl)-1H-1,2,3-benzotriazole] |
| < 75% | <6.5 | > 75% | <5 | COc1cccnc1-c1noc(-c2ccc3c(c2)nnn3C2CCCC2)n1 [Compound 203, 1-cyclopentyl-5-[3-(3-methoxypyridin-2-yl)-1,2,4-oxadiazol-5-yl]-1H-1,2,3-benzotriazole] |
| > 75% | <6.5 | > 75% | >5 | Cc1cc(C)cc(-c2noc(-c3ccc4c(c3)nnn4C(C)C)n2)c1 [Compound 204, 5-[3-(3,5-dimethylphenyl)-1,2,4-oxadiazol-5-yl]-1-(propan-2-yl)-1H-1,2,3-benzotriazole] |
| > 75% | <6.5 | < 75% | <5 | CCCn1nnc2cc(-c3nc(-c4ccncc4)no3)ccc21 [Compound 205, 1-propyl-5-[3-(pyridin-4-yl)-1,2,4-oxadiazol-5-yl]-1H-1,2,3-benzotriazole] |
| > 75% | <6.5 | < 75% | <5 | Cc1ccncc1-c1noc(-c2ccc3c(c2)nnn3CC(C)(C)O)n1 [Compound 206, 2-methyl-1-{5-[3-(4-methylpyridin-3-yl)-1,2,4-oxadiazol-5-yl]-1H-1,2,3-benzotriazol-1-yl}propan-2-ol] |
| > 75% | >6.5 | > 75% | >5 | COc1ccccc1-c1noc(-c2ccc3c(c2)nnn3C(C)(C)C)n1 [Compound 207, 1-tert-butyl-5-[3-(2-methoxyphenyl)-1,2,4-oxadiazol-5-yl]-1H-1,2,3-benzotriazole] |
| > 75% | >6.5 | > 75% | >5 | C=CCNc1ccc(-c2nc(-c3ccc4[nH]ccc4c3)no2)cc1C#N [Compound 208, 5-(3-(1H-indol-5-yl)-1,2,4-oxadiazol-5-yl)-2-(allylamino)benzonitrile] |
| > 75% | >6.5 | > 75% | >5 | CCC1(CC)CC(=O)c2cc(-c3nc(-c4ccc(NC(C)=O)cc4)no3)ccc2O1 [Compound 209, N-(4-(5-(2,2-diethyl-4-oxochroman-6-yl)-1,2,4-oxadiazol-3-yl)phenyl)acetamide] |
| < 75% | <6.5 | > 75% | >5 | CCC1(CC)CC(=O)c2cc(-c3nc(-c4ccc5[nH]cnc5c4)no3)ccc2O1 [Compound 211, 6-(3-(1H-benzo[d]imidazol-5-yl)-1,2,4-oxadiazol-5-yl)-2,2-diethylchroman-4-one] |
| – | <6.5 | – | <5 | COc1ccccc1-c1nsc(-c2ccc3c(c2)nnn3C(C)C)n1 [Compound 213, 5-[3-(2-methoxyphenyl)-1,2,4-thiadiazol-5-yl]-1-(propan-2-yl)-1H-1,2,3-benzotriazole] |
| < 75% | <6.5 | < 75% | <5 | O=C1CC2(CCOCC2)Oc2ccc(-c3nc(-c4cccnc4)no3)cc21 [Compound 214, 6-[3-(pyridin-3-yl)-1,2,4-oxadiazol-5-yl]-3,4-dihydrospiro[1-benzopyran-2,4′-oxane]-4-one] |
| < 75% | <6.5 | < 75% | <5 | CC(C)n1nnc2cc(-c3ncc(-c4ccccc4C(F)(F)F)s3)ccc21 [Compound 215, 2-(1-isopropyl-1H-benzo[d][1,2,3]triazol-5-yl)-5-(2-(trifluoromethyl)phenyl)thiazole] |
| < 75% | <6.5 | < 75% | <5 | Cc1ccccc1-c1cnc(-c2ccc3c(c2)nnn3C(C)C)s1 [Compound 216, 2-(1-isopropylbenzotriazol-5-yl)-5-(o-tolyl)thiazole] |
| – | <6.5 | – | <5 | O=C1CC2(CCC(F)(F)CC2)Oc2ccc(-c3nc(-c4ccncc4)no3)cc21 [Compound 217, 4′,4′-difluoro-6-[3-(pyridin-4-yl)-1,2,4-oxadiazol-5-yl]-3,4-dihydrospiro[1-benzopyran-2,1′-cyclohexane]-4-one] |

From patent US11912693B2, “Compounds for modulating S1P1 activity and methods of using the same” (TREVENA, INC., priority 2017, dated 2024)
